The source of these data is patent US20110112160A1, “TABLET COMPRISING EPROSARTAN MESYLATE” (LEK PHARMACEUTICALS D.D., priority 2008, published 2011).

A word on the bioavailability: it is the share of a dose that reaches the circulation, judged against a reference dose that is usually intravenous.

Each structure is given as a SMILES string.

The nature of data set [1]: Physical stability, form of eprosartan mesylate by X-ray diffraction (XRD). In kind it is physicochemical. The settings on record: at ambient temperature and humidity. The method, then: During the dry granulation processes using different excipients from the list above, physical stability of the eprosartan mesylate anhydrate was investigated. […] The final tablet form and placebo powder were analyzed by X-ray diffraction (XRD) pattern to confirm presence of anhydrous form of eprosartan mesylate.
Diffractograms were collected on X'Pert PRO MPD diffractometer using CuKα radiation. Data were recorded from 2 do 40°2θ; in steps of 0.033°2θ; with the integration times 50 s (routine testing) and from 4 do 20°2θ; in steps of 0.033°2θ; with the integration times 2000 s (to achieve lower LOD). The range for measurements with longer integration times was chosen according to the known diffractograms of eprosartan mesylate crystalline forms, which all have characteristic peaks in the carefully measured range between 4 and 20°2theta.

A short description of data set [2]: Hygroscopicity and interconversion of forms at high relative humidity. In kind it is physicochemical. The settings on record: at RH over 60%. The source says:
Eprosartan mesylate is hygroscopic (at RH over 60%).

For data set [3] the following is noted: background art; cited from earlier work.
For data set [4] the following is noted: at pH 2; typically; cited from earlier work.
Another data set concerns intestinal epithelium. To be noted: background art; cited from earlier work.
The nature of the next data set: Flowability. In kind it is physicochemical. To be noted: drug per se; with sticking on punches.

Take `CCCCc1ncc(/C=C(\Cc2cccs2)C(=O)O)n1Cc1ccc(C(=O)O)cc1.CS(=O)(=O)O` [Eprosartan mesylate in anhydrous form]: the “physical and chemical stability” value in data set [1] was “physically and chemically stable”. The interconversion of form entry in data set [2] is “interconverts to eprosartan mesylate mono- and later to dihydrate”.
In the case of `CCCCc1ncc(/C=C(\Cc2cccs2)C(=O)O)n1Cc1ccc(C(=O)O)cc1.CS(=O)(=O)O` [eprosartan mesylate, (E)-α-[2-n-butyl-1-[(4-carboxyphenyl)methyl]-1H-imidazol-5-yl]methylene-2-thiophenepropionic acid monomethanesulfonate], the bioavailability in data set [3] is 13%. In addition, the solubility result in data set [4] was “less than 0.1 mg/ml”. Also, the “permeability across the intestinal epithelium” value in the data set on intestinal epithelium was “low permeability”. For the same molecule, the flowability result in the data set “Flowability” is recorded as “below 0.15 g/sec”. Also, the hygroscopicity entry in data set [2] is given as “hygroscopic”.
